Experimental findings from ChEMBL document CHEMBL1126672, “1,3-dioxolanylpurine nucleosides (2R,4R) and (2R,4S) with selective anti-HIV-1 activity in human lymphocytes” (J Med Chem, 1993) are described below.

The nature of experiment [1]: Cytotoxicity against uninfected PHA-stimulated human peripheral blood mononuclear (PBM) cells was determined. It is filed as cell-based.
The test system of experiment [2] is CCRF-CEM. The experiment in a line: Cytotoxicity against uninfected PHA-stimulated CEM cells was determined. In kind it is cell-based. The following applies: Homo sapiens.
Experiment [3] has as its system Vero. In words: Cytotoxicity against uninfected PHA-stimulated vero cells was determined. It is filed as cell-based. The settings on record: Chlorocebus sabaeus.
Experiment [4] is described as follows: Antiviral activity was evaluated in mitogen-stimulated human peripheral blood mononuclear (PBM) cells infected with HIV-1 strain LAV. It is filed as functional.
In experiment [5] the test system is CCRF-CEM. The experiment in a line: Cytotoxicity against uninfected PHA-stimulated CEM cells was determined. In kind it is cell-based. The following applies: Homo sapiens.
Experiment [6] in a line: Antiviral activity was evaluated in mitogen-stimulated human peripheral blood mononuclear (PBM) cells infected with HIV-1 strain LAV. It is filed as functional.
A short description of experiment [7]: Cytotoxicity against uninfected PHA-stimulated human peripheral blood mononuclear (PBM) cells was determined. In kind it is cell-based.
Experiment [8] deals with Vero. In words: Cytotoxicity against uninfected PHA-stimulated vero cells was determined. In kind it is cell-based. The settings on record: Chlorocebus sabaeus.

The structures appear in SMILES notation.

Broadly, the IC50 is the concentration needed to halve the response being measured. Higher therefore signals weaker potency in that assay. What is called EC50 is the concentration that produces a half-maximal response. Consider `OC[C@@H]1OC[C@@H](n2cnc3c(Cl)ncnc32)O1`, for which the figures for the IC50 in experiment [1], in experiment [2] and in experiment [3] were greater than 100 µM, 57.6 µM and greater than 100 µM, respectively. The compound also came in with an EC50 in experiment [4] of 11.1 µM.
In the case of `Nc1nc2c(ncn2[C@H]2CO[C@@H](CO)O2)c(=O)[nH]1`, the IC50 in experiment [5], in experiment [7] and in experiment [8] was greater than 100 µM throughout. In addition, a half-maximal effect in experiment [6] (EC50) was put at 0.03 µM.
Take `OC[C@@H]1OC[C@H](n2cnc3c(S)ncnc32)O1`: the IC50 in experiment [1], in experiment [2] and in experiment [3] was greater than 100 µM in each case. Besides, the EC50 in experiment [4] was determined as 26.5 µM.
`Nc1nc(Cl)nc2c1ncn2[C@H]1CO[C@@H](CO)O1`: the IC50 in experiment [1], in experiment [2] and in experiment [3] was greater than 100 µM each time. This compound showed an EC50 in experiment [4] of 1.7 µM.
Turning to `CSc1ncnc2c1ncn2[C@H]1CO[C@@H](CO)O1`, the IC50 in experiment [5], in experiment [7] and in experiment [8] was greater than 100 µM throughout. Further, the EC50 in experiment [6] is 25.1 µM.
For the compound `Cc1cn([C@H]2C[C@H](N=[N+]=[N-])[C@@H](CO)O2)c(=O)[nH]c1=O` [ZIDOVUDINE], the IC50 in experiment [1] was greater than 100 µM; in experiment [2], 30.9 µM. Moreover, a half-maximal response in experiment [4] (EC50) required 0.004 µM.
Regarding `Nc1nc(Cl)nc2c1ncn2[C@@H]1CO[C@@H](CO)O1`, the IC50 in experiment [1], in experiment [2] and in experiment [3] was greater than 100 µM in each case. For the same compound, in experiment [4], the EC50 was 39.9 µM.
For `CNc1nc(Cl)nc2c1ncn2[C@H]1CO[C@@H](CO)O1`, the IC50 in experiment [1], in experiment [2] and in experiment [3] was greater than 100 µM throughout. In experiment [4], this compound returned an EC50 of 40 µM.
For the compound `OC[C@@H]1OC[C@H](n2cnc3c(Cl)ncnc32)O1`, the IC50 in experiment [1], in experiment [2] and in experiment [3] was greater than 100 µM each time. Besides, in experiment [4], it took 22.8 µM to reach a half-maximal effect (EC50).
